From publication PMC9611727, “Optimization of a Novel Mandelamide-Derived Pyrrolopyrimidine Series of PERK Inhibitors” (Pharmaceutics, 2022)

Key:
Assay in all cases: scanMAX kinase panel
Type in all cases: binding
Settings in all cases: read-out: % Control; for remaining binding at 1 µM: 1000 nM
[1] = target: T1, CAMK4 (Homo sapiens, UniProt Q16566)
T1 construct: purchased DiscoverX scanMAX
T1 sequence (Q16566 1-473): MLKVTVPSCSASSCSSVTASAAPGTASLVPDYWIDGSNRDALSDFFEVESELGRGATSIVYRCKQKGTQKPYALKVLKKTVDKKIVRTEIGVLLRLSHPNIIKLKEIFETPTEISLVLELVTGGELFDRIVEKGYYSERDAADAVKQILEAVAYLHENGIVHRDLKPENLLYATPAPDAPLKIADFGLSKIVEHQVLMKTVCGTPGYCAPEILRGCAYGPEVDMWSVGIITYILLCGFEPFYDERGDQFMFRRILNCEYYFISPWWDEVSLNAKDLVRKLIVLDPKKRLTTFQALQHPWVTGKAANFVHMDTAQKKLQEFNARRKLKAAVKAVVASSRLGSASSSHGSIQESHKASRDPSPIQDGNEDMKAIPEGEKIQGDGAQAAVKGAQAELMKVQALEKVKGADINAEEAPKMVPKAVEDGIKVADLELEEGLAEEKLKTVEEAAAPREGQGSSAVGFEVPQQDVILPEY
Description: (§1) Supplemental Table S2. scanMAXSM Kinome Assay Results. Complete tabulated data of all 468 kinases from the panel, including
(§2) 403 wild-type and 65 mutant isoforms. […] Cmpd 11 and Cmpd 24

[2] = target: T2, HIPK4 (Homo sapiens, UniProt Q8NE63)
T2 construct: purchased DiscoverX scanMAX
T2 sequence (Q8NE63 1-616): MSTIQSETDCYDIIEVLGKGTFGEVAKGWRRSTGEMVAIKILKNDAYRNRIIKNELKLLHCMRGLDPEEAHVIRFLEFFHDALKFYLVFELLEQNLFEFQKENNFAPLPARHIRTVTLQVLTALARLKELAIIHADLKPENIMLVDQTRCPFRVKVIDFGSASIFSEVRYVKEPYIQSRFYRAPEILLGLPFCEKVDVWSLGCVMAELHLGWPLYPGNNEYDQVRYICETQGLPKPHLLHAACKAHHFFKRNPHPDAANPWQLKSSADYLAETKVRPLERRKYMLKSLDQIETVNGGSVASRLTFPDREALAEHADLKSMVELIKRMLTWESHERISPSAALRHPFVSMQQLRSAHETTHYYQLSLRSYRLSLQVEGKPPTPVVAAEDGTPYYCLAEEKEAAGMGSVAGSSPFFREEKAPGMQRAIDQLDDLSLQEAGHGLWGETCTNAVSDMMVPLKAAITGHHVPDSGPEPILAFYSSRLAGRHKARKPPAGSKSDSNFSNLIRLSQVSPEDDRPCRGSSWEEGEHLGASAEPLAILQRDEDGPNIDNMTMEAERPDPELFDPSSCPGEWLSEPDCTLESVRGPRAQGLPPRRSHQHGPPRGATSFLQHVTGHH
Description: as §1, §2

[3] = target: T3, KIT (Homo sapiens, UniProt P10721)
T3 construct: purchased DiscoverX scanMAX
Description: as §1, §2

[4] = target: T4, NEK1 (Homo sapiens, UniProt Q96PY6)
T4 construct: purchased DiscoverX scanMAX
T4 sequence (Q96PY6 1-1258): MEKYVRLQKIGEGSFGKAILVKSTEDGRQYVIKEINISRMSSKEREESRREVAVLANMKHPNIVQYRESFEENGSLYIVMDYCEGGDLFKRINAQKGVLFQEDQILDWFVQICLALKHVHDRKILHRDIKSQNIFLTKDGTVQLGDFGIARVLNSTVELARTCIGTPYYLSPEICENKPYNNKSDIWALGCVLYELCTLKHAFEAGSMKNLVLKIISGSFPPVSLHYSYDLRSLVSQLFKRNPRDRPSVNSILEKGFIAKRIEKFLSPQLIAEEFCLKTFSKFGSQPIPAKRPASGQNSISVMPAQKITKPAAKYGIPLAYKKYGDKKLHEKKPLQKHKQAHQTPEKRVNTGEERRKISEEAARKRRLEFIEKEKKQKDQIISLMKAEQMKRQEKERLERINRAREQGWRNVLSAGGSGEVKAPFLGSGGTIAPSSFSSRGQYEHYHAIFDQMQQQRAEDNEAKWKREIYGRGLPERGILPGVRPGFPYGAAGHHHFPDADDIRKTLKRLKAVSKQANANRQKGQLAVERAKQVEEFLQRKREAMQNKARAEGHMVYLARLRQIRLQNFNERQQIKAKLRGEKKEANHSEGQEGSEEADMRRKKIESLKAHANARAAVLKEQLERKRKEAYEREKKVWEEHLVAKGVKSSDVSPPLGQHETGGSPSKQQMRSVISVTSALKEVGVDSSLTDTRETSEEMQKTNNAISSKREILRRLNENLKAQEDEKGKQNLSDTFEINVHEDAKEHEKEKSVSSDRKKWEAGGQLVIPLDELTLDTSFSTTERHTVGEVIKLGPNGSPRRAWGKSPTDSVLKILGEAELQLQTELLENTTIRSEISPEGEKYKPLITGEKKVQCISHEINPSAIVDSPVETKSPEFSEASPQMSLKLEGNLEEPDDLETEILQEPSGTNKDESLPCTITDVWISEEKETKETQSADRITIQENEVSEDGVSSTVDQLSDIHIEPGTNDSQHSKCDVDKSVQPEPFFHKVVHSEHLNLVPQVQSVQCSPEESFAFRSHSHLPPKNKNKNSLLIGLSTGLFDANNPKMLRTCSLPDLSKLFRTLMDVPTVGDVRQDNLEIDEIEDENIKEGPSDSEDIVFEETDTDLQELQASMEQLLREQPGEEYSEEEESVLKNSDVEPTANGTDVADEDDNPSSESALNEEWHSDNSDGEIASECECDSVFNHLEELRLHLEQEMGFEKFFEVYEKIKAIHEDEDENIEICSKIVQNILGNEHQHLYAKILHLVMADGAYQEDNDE
Description: as §1, §2

T3 sequence (P10721 26-976): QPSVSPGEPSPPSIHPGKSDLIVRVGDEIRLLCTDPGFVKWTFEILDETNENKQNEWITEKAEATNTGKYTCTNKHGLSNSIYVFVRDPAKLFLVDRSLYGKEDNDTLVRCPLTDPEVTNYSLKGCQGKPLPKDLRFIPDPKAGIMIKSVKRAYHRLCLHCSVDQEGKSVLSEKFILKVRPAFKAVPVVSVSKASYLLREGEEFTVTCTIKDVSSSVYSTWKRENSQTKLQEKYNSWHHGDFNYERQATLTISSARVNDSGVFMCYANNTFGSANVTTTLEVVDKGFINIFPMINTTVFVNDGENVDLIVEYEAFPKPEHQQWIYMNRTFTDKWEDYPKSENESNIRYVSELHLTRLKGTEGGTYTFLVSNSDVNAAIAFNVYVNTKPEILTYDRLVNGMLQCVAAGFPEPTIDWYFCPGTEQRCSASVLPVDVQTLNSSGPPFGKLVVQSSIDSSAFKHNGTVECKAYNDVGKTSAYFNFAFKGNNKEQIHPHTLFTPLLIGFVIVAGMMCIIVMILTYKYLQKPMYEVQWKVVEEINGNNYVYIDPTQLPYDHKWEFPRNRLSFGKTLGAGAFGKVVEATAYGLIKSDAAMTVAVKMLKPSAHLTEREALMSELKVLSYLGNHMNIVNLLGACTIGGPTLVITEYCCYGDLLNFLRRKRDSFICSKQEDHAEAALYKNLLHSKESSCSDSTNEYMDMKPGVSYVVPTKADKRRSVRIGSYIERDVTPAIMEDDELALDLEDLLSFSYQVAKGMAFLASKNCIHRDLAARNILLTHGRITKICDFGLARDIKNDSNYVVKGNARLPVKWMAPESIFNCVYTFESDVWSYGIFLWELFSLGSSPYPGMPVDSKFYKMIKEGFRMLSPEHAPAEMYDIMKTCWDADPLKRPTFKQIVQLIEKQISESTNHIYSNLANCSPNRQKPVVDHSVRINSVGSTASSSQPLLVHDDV

SMILES	remaining binding at 1 µM [1]	remaining binding at 1 µM [2]	remaining binding at 1 µM [3]	remaining binding at 1 µM [4]	remaining binding at 0.1 µM ([1]; 100 nM)	remaining binding at 0.1 µM ([2]; 100 nM)	remaining binding at 0.1 µM ([3]; 100 nM)	remaining binding at 0.1 µM ([4]; 100 nM)
Cc1nc(N)c2c(-c3ccc(NC(=O)[C@H](O)c4cccc(F)c4)cc3C)cn(C)c2n1 [Compound 24]	100%	100%	100%	100%	–	–	–	–
Cc1cc(NC(=O)[C@H](O)c2cccc(F)c2)ccc1-c1cn(C)c2ncnc(N)c12 [Compound 11, (R)-N-(4-(4-amino-7-methyl-7H-pyrrolo[2,3-d]pyrimidin-5-yl)-3-methylphenyl)-2-(3-fluorophenyl)-2-hydroxy acetamide]	32%	16%	38%	2.9%	–	–	–	–
Cc1nc(N)c2c(-c3ccc(NC(=O)[C@H](O)c4cccc(C(F)(F)F)c4)cc3C)cn(C)c2n1 [Compound 26]	75%	3.8%	0.65%	100%	100%	69%	97%	88%
